{
  "source": "patent US6916791B2",
  "about": "“Androgen derivatives and uses thereof” (Strakan Limited, priority 1999, dated 2005)",
  "key": {"[1]": {"details": "orchiectomised male rats"}, "[2]": {"details": "mice; compared with testosterone administered by the same route; cited from earlier work"}},
  "data": [
    {"smiles": "C[C@]12CC[C@H]3[C@@H](CCC4=CC(=O)CC[C@@]43C)[C@@H]1CC[C@@H]2O[C@@H]1O[C@H](CO)[C@@H](O)[C@H](O)[C@H]1O", "note": "[testosterone glucoside, Testosterone-17-β-1′-β′-D-glucopyranose]", "values": [
      {"measurement": "bioavailability, oral", "setting": "[1]; 1.56 mg orally daily for 6 days, serum testosterone 4 hours after final dose", "result": "bioavailable when given orally"},
      {"measurement": "metabolism to testosterone", "setting": "[1]; oral or intramuscular, daily for 6 days", "result": "readily metabolised to testosterone"},
      {"measurement": "biological activity in vivo", "setting": "[2]", "result": "very little activity in vivo, and certainly less than testosterone"}
    ]}
  ]
}
